One may read the EC50 as the concentration giving half of the maximal effect. Low values mean a more potent agent, high ones a less potent agent.

Results on six compounds are retold here after patent US20260151399A1, “COMBINATIONS OF LSD1 INHIBITORS AND MENIN INHIBITORS FOR TREATING CANCER” (ORYZON GENOMICS, S.A., priority 2022, published 2026).

What all share (experiment): Single agent viability assay (96 hours, alamarBlue)
Holding throughout (type): cell-based

Data set [1] has as its system MV(4;11). The following applies: for EC50: Homo sapiens, MV4-11, mean, 96 hours incubation, N=2; for EC50 (range in words) / reduction of viability (compared to vehicle controls): MV(4;11), 96 hours. The protocol: (§1) Mycoplasma-free AML cell lines were maintained in RPMI 10% FBS medium at 37° C. in a humidified incubator with controlled 5% CO2 atmosphere. Cell freezing and thawing was performed following recommendation from ATCC. Genetic profiling of the cell lines used is available in Table 1.
(§2) Cells were seeded in 96-well plates at the optimal density to guarantee linear growth throughout the assay (8000 cells/well for MV(4;11), 4000 cells/well for MOLM-13 and OCI-AML3) in 50 μL of medium. Each experimental condition was tested in technical triplicates, including medium-only and vehicle-treated controls for background correction and normalization, respectively. After seeding, 50 μL of medium containing 9 serial dilutions of 2×-concentrated compound were added to the cells to obtain 100 μL of cells with 1×-concentrated compound at each dilution (DMSO %<0.5%). Cells were then incubated for 96 hours at 37° C. in a controlled 5% CO2 atmosphere, prior to evaluation of cell viability using alamarBlue™ cell viability reagent (ThermoFisher Scientific, Waltham, MA/USA). AlamarBlue™ is a cell viability indicator that uses the natural reducing power of living cells to convert resazurin to the fluorescent molecule resorufin. Briefly, alamarBlue™ stock solution was diluted 1:20 in the culture medium and after 3 hours incubation fluorescence was measured using a TECAN Infinity 2000 plate reader (Tecan Group Ltd., Mannedorf, CH; 540-570 nm excitation wavelength, 580-610 nm emission wavelength). For each condition, the average fluorescence was calculated from the 3 technical replicates; background correction was calculated from the fluorescence of medium-only controls. Data were analyzed using the GraphPad PRISM® version 9.0.1 (GraphPad Software, Inc., La Jolla, CA/USA) to calculate the best-fitting curves and the EC50 values.

Data set [2] relates to MOLM-13. The following applies: for EC50: Homo sapiens, MOLM-13, mean, 96 hours incubation, N=2; for EC50 (range in words) / reduction of viability (compared to vehicle controls): MOLM-13, 96 hours. The protocol:
as §1, §2

Data set [3] has as its system OCI-AML3. The note with it: for EC50: Homo sapiens, OCI-AML-3, mean, 96 hours incubation, N=2. The protocol: as §1, §2

Structures are written as SMILES.

As to `COc1ccc(-c2c(-c3ccc(C#N)c(F)c3)nc(N3CCC(N)CC3)n(C)c2=O)cc1F` [pulrodemstat, 4-[2-(4-aminopiperidin-1-yl)-5-(3-fluoro-4-methoxyphenyl)-1-methyl-6-oxo-1,6-dihydropyrimidin-4-yl]-2-fluorobenzonitrile], the values for the EC50 in data set [1], in data set [2] and in data set [3] were 1.1 nM, 1.15 nM and 0.99 nM, respectively.

Regarding `CN1CCN(C(=O)[C@H](CCCN[C@@H]2C[C@H]2c2ccc(F)cc2)NC(=O)c2ccc(-n3ccnn3)cc2)CC1` [bomedemstat, N-[(2S)-5-{[(1R,2S)-2-(4-fluorophenyl)cyclopropyl]amino}-1-(4-methylpiperazin-1-yl)-1-oxopentan-2-yl]-4-(1H-1,2,3-triazol-1-yl)benzamide], the figures for the concentration for a half-maximal effect (EC50) in data set [1], in data set [2] and in data set [3] were 2.9 nM, 3.55 nM and 1.4 nM, respectively.

As to `CCN(C(=O)c1cc(F)ccc1Oc1cncnc1N1CC2(CCN(C[C@H]3CC[C@H](NS(=O)(=O)CC)CC3)CC2)C1)C(C)C` [revumenib, 2-{[4-(7-{[trans-4-(ethanesulfonamido)cyclohexyl]methyl}-2,7-diazaspiro[3.5]nonan-2-yl)pyrimidin-5-yl]oxy}-N-ethyl-5-fluoro-N-(propan-2-yl)benzamide], the EC50 stood at 9.58 nM in data set [1], 32 nM in data set [2] and 53.2 nM in data set [3]. For the same compound, the “EC50 (range in words)” value in data set [1] was “nanomolar range”; in data set [2], “nanomolar range”; in data set [3] (OCI-AML3, 96 hours), “nanomolar range”. In addition, the “reduction of viability (compared to vehicle controls)” value (“reduction of viability” for short) is about 100% in data set [1]; “around 70%” in data set [2]; “around 50%” in data set [3] (OCI-AML3, 96 hours).

Consider `N[C@H]1CC[C@H](N[C@@H]2C[C@H]2c2ccccc2)CC1` [iadademstat, (trans)-N1-((1R,2S)-2-phenylcyclopropyl)cyclohexane-1,4-diamine], for which the EC50 stood at 0.16 nM in data set [1], 0.2 nM in data set [2] and 0.13 nM in data set [3].

Regarding `N#Cc1cc2cc(CN3CCC(Nc4ncnc5sc(CC(F)(F)F)cc45)CC3)ccc2[nH]1` [MI-136, 5-[[4-[[6-(2,2,2-trifluoroethyl)thieno[2,3-d]pyrimidin-4-yl]amino]piperidin-1-yl]methyl]-1H-indole-2-carbonitrile], in data set [1], a half-maximal response (EC50) required 593 nM, the “EC50 (range in words)” value is “less potent than SNDX-5613” and the “reduction of viability” value is 100%. Moreover, in data set [2], the EC50 was found to be 1840 nM, the “EC50 (range in words)” value is recorded as “less potent than SNDX-5613” and the “reduction of viability” value was 100%.

As for `CC(C)(C)OC(=O)N[C@@H]1CCCN(Cc2ccnc(C(=O)Nc3ccc(-c4cc5c(N6CCOCC6)ncnc5[nH]4)cc3)c2)C1` [Menin-MLL inhibitor 20, tert-butyl N-[(3R)-1-[[2-[[4-(4-morpholin-4-yl-7H-pyrrolo[2,3-d]pyrimidin-6-yl)phenyl]carbamoyl]pyridin-4-yl]methyl]piperidin-3-yl]carbamate], in data set [1], a half-maximal effect (EC50) was put at 750 nM, the “EC50 (range in words)” value is “less potent than SNDX-5613” and the “reduction of viability” value worked out at 100%. In data set [2], the EC50 was found to be 714 nM, the “EC50 (range in words)” value is “less potent than SNDX-5613” and the “reduction of viability” value is recorded as 100%.
